Assay results: patent publication US20130288989A1, “NEW USE OF CHEMICAL INGREDIENTS IN CYNOMORIUM AS PHYTOESTROGEN” (TIANJIN UNIVERSITY OF TRADITIONAL CHINESE MEDICINE, priority 2010, published 2013)
Entries after “also recorded” stand apart in the source; their conditions may differ.

Experiments:
Format in all cases: cell-based
ERβ = biological target: T1, ERβ (Homo sapiens, UniProt Q92731); experiment: ERβ luciferase reporter gene transcription activation in transfected Hela cells; settings: for ERβ (% of the control) mean ± S.D. / ERβ (% of estradiol): Hela cells; for ERβ (% of the control) mean ± S.D.: 24 h; for ERβ (% of estradiol): estradiol at 10^−8M; for concentration at which the transcriptional activity of ERβ is agonized: luciferase reporter gene
T1 construct: expressed in transfected cells; host or cells: Hela cells (ER expression free)
Source text: (§1) Actually, estrogens show their biological activity by regulating estrogen responding genetic transcription.
(§2) Formulation of sample solutions of catechin, (−)epicatechin-3-O-gallate, naringenin-4′-O-glucoside, phlorizin, emodin, chrysophanol (separately obtained from Example 1):
(§3) Catechin, (−)epicatechin-3-O-gallate, naringenin-4′-O-glucoside, phlorizin, emodin, chrysophanol in corresponding weights were separately weighed precisely, than added with DMSO for dissolution, the corresponding sample solution high dose groups (10 μM or 1 μM), were diluted in certain times to separately obtain low dose groups (1 μM to 0.001 μM).
(§4) Under condition of 37° C. and 5% CO2, Hela cells were cultured in phenol red-free high sugar DMEM culture medium containing 10% calf serum in incubator, the cells were spread in 60% density on 96-well plate when cell density was about 90%, each well was added with 150 ul of phenol red-free DMEM culture medium containing 10% serum, cultivation was performed overnight. To each well of the 96-well plate, 100 ul of serum-free DMEM culture medium and 0.4 μg plasmid (ptk-ERE-luc 2 μg, tk-Renila 1 μg, ERα or ERβ 1 μg) were used for transfection. After 6 h of transfection, each well was added with 150 ul of serum-free phenol red-free DMEM culture medium. Three wells were selected form each group, added with 10^−8M estradiol E2, and substance to be tested in different concentrations, 15 ul/well (sample 4-5 concentration gradient groups), continuously cultured under condition of 37° C., 5% CO2 for 24 h. After 24 h, each well was added with 80 μl of cell disruption solution, and the cells were subjected to freeze thawing once to be sufficiently disrupted. As for the cell lysis solution of each well, its activities to firefly luciferase and Renila luciferase were separately measured.

ERα = biological target: T2, ERα (Homo sapiens, UniProt P03372); experiment: ERα luciferase reporter gene transcription activation in transfected Hela cells; settings: for ERα (% of the control) mean ± S.D. / ERα (% of estradiol): Hela cells; for ERα (% of the control) mean ± S.D.: 24 h; for ERα (% of estradiol): estradiol at 10^−8M; for concentration at which the transcriptional activity of ERα is agonized: luciferase reporter gene
T2 construct: expressed in transfected cells; host or cells: Hela cells (ER expression free)
T2 sequence (P03372 1-595): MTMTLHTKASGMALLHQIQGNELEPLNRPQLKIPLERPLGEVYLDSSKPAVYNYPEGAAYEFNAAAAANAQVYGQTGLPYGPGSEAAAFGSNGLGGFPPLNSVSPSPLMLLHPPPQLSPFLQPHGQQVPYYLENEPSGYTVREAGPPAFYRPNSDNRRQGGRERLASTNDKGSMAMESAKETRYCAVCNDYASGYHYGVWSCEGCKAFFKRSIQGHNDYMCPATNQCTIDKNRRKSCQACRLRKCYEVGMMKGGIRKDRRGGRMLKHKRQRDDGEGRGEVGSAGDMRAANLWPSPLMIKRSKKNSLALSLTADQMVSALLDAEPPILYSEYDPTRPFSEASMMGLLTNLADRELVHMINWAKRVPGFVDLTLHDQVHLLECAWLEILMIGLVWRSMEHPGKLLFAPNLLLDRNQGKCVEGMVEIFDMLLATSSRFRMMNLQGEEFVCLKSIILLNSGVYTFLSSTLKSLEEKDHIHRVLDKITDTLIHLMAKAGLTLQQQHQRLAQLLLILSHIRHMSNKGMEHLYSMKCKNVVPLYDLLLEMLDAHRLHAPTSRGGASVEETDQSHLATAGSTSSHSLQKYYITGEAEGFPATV
Source text: as §1, §2, §3, §4

estrogen receptor = experiment: Estrogen receptor activation test: overall estrogen activity and ERβ versus ERα comparison; settings: for ERβ/ERα (both % of estradiol at 10^−8M): Hela cells; for estrogen activity / estrogen receptor activation (in words): estradiol as positive control
Procedure: as §1, §4

T1 sequence (Q92731 whole entry): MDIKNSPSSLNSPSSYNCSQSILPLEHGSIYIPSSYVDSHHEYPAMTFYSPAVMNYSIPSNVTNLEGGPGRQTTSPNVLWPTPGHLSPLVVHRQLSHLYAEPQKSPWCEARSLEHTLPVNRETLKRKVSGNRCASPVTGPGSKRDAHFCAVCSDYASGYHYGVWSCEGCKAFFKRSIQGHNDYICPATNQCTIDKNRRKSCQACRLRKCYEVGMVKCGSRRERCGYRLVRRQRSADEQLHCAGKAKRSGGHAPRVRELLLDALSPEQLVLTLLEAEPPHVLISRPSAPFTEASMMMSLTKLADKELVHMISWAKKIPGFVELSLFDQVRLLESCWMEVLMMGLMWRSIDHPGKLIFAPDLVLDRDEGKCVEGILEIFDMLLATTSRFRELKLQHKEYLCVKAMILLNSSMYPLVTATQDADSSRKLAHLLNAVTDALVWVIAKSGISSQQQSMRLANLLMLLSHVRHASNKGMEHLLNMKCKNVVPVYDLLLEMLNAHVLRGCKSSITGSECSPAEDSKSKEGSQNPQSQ

| Compound | ERβ (% of the control) mean ± S.D. (ERβ; 10^−5 M) | ERβ (% of estradiol) (ERβ; 10^−5 M) | ERβ (% of the control) mean ± S.D. (ERβ; 10^−6 M) | ERβ (% of estradiol) (ERβ; 10^−6 M) | ERβ (% of the control) mean ± S.D. (ERβ; 10^−7 M) | ERβ (% of estradiol) (ERβ; 10^−7 M) | ERβ (% of the control) mean ± S.D. (ERβ; 10^−8 M) | ERβ (% of estradiol) (ERβ; 10^−8 M) | concentration at which the transcriptional activity of ERβ is agonized (ERβ) | ERα (% of the control) mean ± S.D. (ERα; 10^−5 M) | ERα (% of estradiol) (ERα; 10^−5 M) | ERα (% of the control) mean ± S.D. (ERα; 10^−6 M) | ERα (% of estradiol) (ERα; 10^−6 M) | ERα (% of the control) mean ± S.D. (ERα; 10^−7 M) | ERα (% of estradiol) (ERα; 10^−7 M) | ERα (% of the control) mean ± S.D. (ERα; 10^−8 M) | ERα (% of estradiol) (ERα; 10^−8 M) | concentration at which the transcriptional activity of ERα is agonized (ERα) | ERβ/ERα (both % of estradiol at 10^−8M) (estrogen receptor; sample 10^−5 M) | ERβ/ERα (both % of estradiol at 10^−8M) (estrogen receptor; sample 10^−6 M) | other results |
| --- | --- | --- | --- | --- | --- | --- | --- | --- | --- | --- | --- | --- | --- | --- | --- | --- | --- | --- | --- | --- | --- |
| O=C1C[C@@H](c2ccc(O[C@@H]3O[C@H](CO)[C@@H](O)[C@H](O)[C@H]3O)cc2)Oc2cc(O)cc(O)c21 [Naringenin-4′-O-glucoside, naringenin-4′-O-glucoside] | 215.85 ± 22.32 % of the control | (108.71) % of estradiol | 207.11 ± 15.76 % of the control | (104.30) % of estradiol | 200.66 ± 5.22 % of the control | (101.06) % of estradiol | 180.98 ± 10.46 % of the control | (91.14) % of estradiol | 10^−9-10^−5 M | 188.07 ± 18.61 % of the control | (91.88) % of estradiol | 198.72 ± 3.99 % of the control | (97.08) % of estradiol | 182.34 ± 5.97 % of the control | (89.08) % of estradiol | 157.62 ± 14.54 % of the control | (77.00) % of estradiol | 10^−9-10^−5 M | 1.18 | 1.07 | ERβ (% of the control) mean ± S.D. (ERβ; 10^−9 M): 137.90 ± 9.40 % of the control; ERβ (% of estradiol) (ERβ; 10^−9 M): (69.45) % of estradiol; ERα (% of the control) mean ± S.D. (ERα; 10^−9 M): 110.04 ± 5.59 % of the control; ERα (% of estradiol) (ERα; 10^−9 M): (53.76) % of estradiol; ERβ/ERα (both % of estradiol at 10^−8M) (estrogen receptor; sample 10^−7 M): 1.13; ERβ/ERα (both % of estradiol at 10^−8M) (estrogen receptor; sample 10^−8 M): 1.18; ERβ/ERα (both % of estradiol at 10^−8M) (estrogen receptor; sample 10^−9 M): 1.29; estrogen activity / estrogen receptor activation (in words) (estrogen receptor): show relevance to estrogen receptor activation; estrogen activity / estrogen receptor activation (in words) (estrogen receptor; listed as naringenin-4′-β-glucoside): potent activity of estrogen; dose dependence of agonism of ERα and ERβ transcriptional activity (estrogen receptor; result in words): in a dose dependent manner; selectivity to receptor subtypes (ERα vs ERβ) (estrogen receptor; result in words): a higher selectivity to ERβ than ERα |
| O=C(CCc1ccc(O)cc1)c1c(O)cc(O)cc1O[C@@H]1O[C@H](CO)[C@@H](O)[C@H](O)[C@H]1O [Phlorizin, phlorizin] | 147.95 ± 10.29 % of the control | (80.17) % of estradiol | 133.79 ± 5.45 % of the control | (72.50) % of estradiol | 116.14 ± 8.86 % of the control | (62.93) % of estradiol | 109.38 ± 8.72 % of the control | (59.27) % of estradiol | 10^−6-10^−5 M | 137.71 ± 8.44 % of the control | (72.38) % of estradiol | 122.09 ± 11.33 % of the control | (64.17) % of estradiol | 118.40 ± 4.20 % of the control | (62.23) % of estradiol | 105.43 ± 13.57 % of the control | (55.41) % of estradiol | 10^−6-10^−5 M | 1.11 | 1.13 | ERβ/ERα (both % of estradiol at 10^−8M) (estrogen receptor; sample 10^−7 M): 1.01; ERβ/ERα (both % of estradiol at 10^−8M) (estrogen receptor; sample 10^−8 M): 1.07; estrogen activity / estrogen receptor activation (in words) (estrogen receptor): show relevance to estrogen receptor activation; also recorded: potent activity of estrogen; selectivity to receptor subtypes (ERα vs ERβ) (estrogen receptor; result in words): no significant selectivity to receptor subtypes |
| catechin | 115.59 ± 13.39 % of the control | (59.86) % of estradiol | 103.71 ± 9.07 % of the control | (53.71) % of estradiol | 102.57 ± 1.04 % of the control | (53.12) % of estradiol | 101.93 ± 2.27 % of the control | (52.79) % of estradiol | 10^−5 M | 128.00 ± 8.74 % of the control | (60.23) % of estradiol | 108.85 ± 8.87 % of the control | (51.22) % of estradiol | 106.72 ± 12.84 % of the control | (50.22) % of estradiol | 102.89 ± 10.21 % of the control | (48.42) % of estradiol | 10^−5 M | 1.28 | 1.05 | ERβ/ERα (both % of estradiol at 10^−8M) (estrogen receptor; sample 10^−7 M): 1.06; ERβ/ERα (both % of estradiol at 10^−8M) (estrogen receptor; sample 10^−8 M): 1.09; estrogen activity / estrogen receptor activation (in words) (estrogen receptor): show relevance to estrogen receptor activation; also recorded: potent activity of estrogen; selectivity to receptor subtypes (ERα vs ERβ) (estrogen receptor; result in words): no significant selectivity to receptor subtypes |
